Data from ChEMBL document CHEMBL4321798, “Old but Gold: Tracking the New Guise of Histone Deacetylase 6 (HDAC6) Enzyme as a Biomarker and Therapeutic Target in Rare Diseases” (J Med Chem, 2020).

Assays:
[1] = Inhibition of maize HD2; design: species or system Zea mays
[2] = Inhibition of maize HD1-A; design: species or system Zea mays
Histone deacetylase 1 = Histone deacetylase 1 (Homo sapiens, UniProt Q13547); assay: Inhibition of HADC1 (unknown origin)
[3] = target: T1, Protein deacetylase HDAC6 (Homo sapiens, UniProt Q9UBN7); assay: Inhibition of HADC6 (unknown origin)
T1 sequence (Q9UBN7 whole entry): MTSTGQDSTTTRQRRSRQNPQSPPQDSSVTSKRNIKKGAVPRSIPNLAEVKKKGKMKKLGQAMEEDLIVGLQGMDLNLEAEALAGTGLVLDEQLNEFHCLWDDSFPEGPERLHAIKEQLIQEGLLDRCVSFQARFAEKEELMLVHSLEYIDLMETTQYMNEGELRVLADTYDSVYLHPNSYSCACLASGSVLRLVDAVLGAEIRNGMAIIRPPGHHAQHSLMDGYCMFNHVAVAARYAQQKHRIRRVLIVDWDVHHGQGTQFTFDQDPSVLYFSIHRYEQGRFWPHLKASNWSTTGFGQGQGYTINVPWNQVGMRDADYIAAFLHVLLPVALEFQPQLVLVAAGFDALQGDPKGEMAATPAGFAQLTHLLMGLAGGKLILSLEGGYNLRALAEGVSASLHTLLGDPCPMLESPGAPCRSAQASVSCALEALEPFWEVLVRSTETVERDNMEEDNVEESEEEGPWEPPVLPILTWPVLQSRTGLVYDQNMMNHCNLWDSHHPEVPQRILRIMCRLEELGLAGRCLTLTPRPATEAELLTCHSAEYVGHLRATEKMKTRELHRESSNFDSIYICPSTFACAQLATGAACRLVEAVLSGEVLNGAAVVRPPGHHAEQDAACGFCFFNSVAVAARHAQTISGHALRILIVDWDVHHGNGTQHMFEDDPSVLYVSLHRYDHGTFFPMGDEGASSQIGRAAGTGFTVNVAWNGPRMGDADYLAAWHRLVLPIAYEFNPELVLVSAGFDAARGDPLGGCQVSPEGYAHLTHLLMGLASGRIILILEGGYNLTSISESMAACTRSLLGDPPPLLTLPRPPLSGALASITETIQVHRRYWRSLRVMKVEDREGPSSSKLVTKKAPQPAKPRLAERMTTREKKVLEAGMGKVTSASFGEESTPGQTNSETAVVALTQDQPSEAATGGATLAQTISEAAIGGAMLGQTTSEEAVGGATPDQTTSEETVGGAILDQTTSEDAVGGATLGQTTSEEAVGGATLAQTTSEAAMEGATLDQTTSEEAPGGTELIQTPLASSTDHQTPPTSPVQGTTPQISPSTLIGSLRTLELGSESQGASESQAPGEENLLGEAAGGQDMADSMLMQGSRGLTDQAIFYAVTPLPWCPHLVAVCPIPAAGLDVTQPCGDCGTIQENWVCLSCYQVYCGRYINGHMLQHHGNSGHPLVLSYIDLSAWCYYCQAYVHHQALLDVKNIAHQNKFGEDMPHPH

Histone deacetylase 1, sequence (Q13547 whole entry): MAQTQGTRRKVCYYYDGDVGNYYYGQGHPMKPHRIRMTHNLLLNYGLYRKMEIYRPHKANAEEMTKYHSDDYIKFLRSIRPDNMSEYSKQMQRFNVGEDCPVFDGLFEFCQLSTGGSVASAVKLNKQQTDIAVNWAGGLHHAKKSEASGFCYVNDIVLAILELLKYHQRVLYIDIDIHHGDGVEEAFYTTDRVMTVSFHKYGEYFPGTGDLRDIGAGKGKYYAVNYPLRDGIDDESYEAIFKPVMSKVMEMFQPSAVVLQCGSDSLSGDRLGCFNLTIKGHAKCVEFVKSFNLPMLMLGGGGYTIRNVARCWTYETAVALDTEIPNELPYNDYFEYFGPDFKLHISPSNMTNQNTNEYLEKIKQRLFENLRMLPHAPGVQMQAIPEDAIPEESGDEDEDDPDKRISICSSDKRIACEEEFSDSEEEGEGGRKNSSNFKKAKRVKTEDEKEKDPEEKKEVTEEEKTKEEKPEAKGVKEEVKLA

Row | SMILES | IC50 [2] | IC50 (Histone deacetylase 1) | IC50 [3] | IC50 [1]
1 | CN(C)c1ccc(C(=O)NCCCCCCC(=O)NO)cc1 | – | – | – | 100 nM
2 | Cn1cc(/C=C/C(=O)c2cccc(F)c2)cc1/C=C/C(=O)NO | 100 nM | – | – | –

More lines, main results first:

Row | IC50 [2] | IC50 (Histone deacetylase 1) | IC50 [3] | SMILES | IC50 [1]
3 | – | 4320 nM | 3 nM | Cc1nc2ccccc2n1Cc1ccc(C(=O)NO)cc1F | –
4 | – | 3.3 nM | 1600 nM | CC(C)[C@H]1NC(=O)[C@H]2CSSCC/C=C/[C@H](CC(=O)N[C@H](C)C(=O)N2)OC(=O)C[C@@H]1O [OBP-801] | –
5 | – | 40000 nM | – | CCCC(CCC)C(=O)O [VALPROIC ACID] | –
